Assay results from patent US20130172308A1, “ANTIMICROBIAL AGENTS” (John Grant COLLINS, priority 2011, published 2013).

Assays:
[1] = test system: Plasmodium falciparum strain D6; assay: [3H]-hypoxanthine growth inhibition assay; format: cell-based; conditions: Plasmodium falciparum, D6, 96 h
Experimental: (§1) The in vitro antimalarial activities of two of the dinuclear ruthenium(II) complexes and chloroquine were assessed by exposing P. falciparum strains to ten serially diluted two-fold concentrations of each compound. Parasite growth was measured by uptake of tritiated [^3H]-hypoxanthine into newly synthesised parasitic DNA.
(§2) The [^3H]-hypoxanthine growth inhibition assay (Desjardins et al., 1979 Antimicrobial Agents Chemother 16: 710-718) was used to evaluate the in vitro antimalarial activity of the compounds. Briefly, synchronised parasite cultures (>90% rings, 6 to 8 h post invasion) in [^3H]-RPMI-LPLF complete medium with 0.5% parasitaemia and 2% haematocrit were exposed to the compounds at ten two-fold concentrations, ranging from 10,000 to 20 nM in 96-well microtitre plates. Chloroquine was used as a reference drug. Uninfected RBCs at 2% haematocrit were used as background controls. For the 96 h exposure period, the plates were incubated in the gas mixture at 37° C. for approximately 48 h, followed by the addition of 0.2 μCi of ^3H-hypoxanthine (GE Healthcare, Amersham) in [^3H]-RPMI-1640-LPLF to each well and a further 48 h of incubation and then frozen at −20° C. Plates were thawed and harvested using Tomtech Harvester 96 Mach III and radioactive counts were obtained using Wallac TriLux 1450 Microbeta Liquid Scintillation Counter (Perkin Elmer, USA). All assays were performed in triplicate for each strain and at least on two separate occasions.
(§3) Tritiated hypoxanthine uptake data were analysed in Graphpad Prism V5.0 software (GraphPad Software Inc. USA). The concentrations of the dinuclear ruthenium(II) complexes and chloroquine were transformed into logarithmic values. After subtracting the background values, the data from drug-treated wells were normalised against drug-free control wells. Non-linear regression analysis was carried out of the compound's concentration versus parasitic hypoxanthine incorporation. The in vitro antimalarial activity of the compound is defined as inhibitory concentrations (IC50) and (IC90) that cause 50% and 90% inhibition of parasite growth as determined by measuring [^3H]-hypoxanthine incorporation.

[2] = test system: Plasmodium falciparum strain W2; assay: [3H]-hypoxanthine growth inhibition assay; format: cell-based; conditions: Plasmodium falciparum, W2, 96 h
Experimental: as §1, §2, §3

S. aureus ATCC 25923 = assay: MIC determination, broth micro-dilution (CAMHB); format: cell-based, Staphylococcus aureus; conditions: Table 1; 37° C., 24 h
Experimental: (§4) Four strains of bacteria were chosen for the susceptibility tests: S. aureus ATCC 25923; MRSA (a wild clinical strain from the JCU culture collection); E. coli ATCC 25922 and P. aeruginosa ATCC 27853. The bacteria were grown on Mueller Hinton agar (OXOID, cat. No. CM0337) and suspended in growth medium cation-adjusted Mueller Hinton broth (CAMHB, OXOID, cat. No. CM0405). The MIC of each complex was determined in duplicate by standard micro-dilution methodology (British Society for Antimicrobial Chemotherapy Working Party, J. Antimicrob. Chemother., 1991, 27(suppl. D), 22) using gentamicin as the positive control. The ruthenium complexes were dissolved in CAMHB to a stock solution of […] and two-fold diluted in the broth in 96-well plates in a final volume of […] in each well. The same volume […] of bacterial suspension was added in each well making a concentration range of 0.25 mg ml^−1 to 128 mg ml^−1 for each complex. The plates were incubated at 37° C. for 24 h. The results are summarised in Table 1 below, using the following abbreviations: • Rubpm=ΔΔ-[{Ru(phen)2}2(μ-2,2′-bipyrimidine)]Cl4 • Rudppm=ΔΔ-[{Ru(phen)2}2(μ-4,6-bis(2-pyridyl)pyrimidine)]Cl4 • Rubb7trinuclear=Δ*Δ*-[{Ru*(phen)2}(μ-bb7){Ru(phen)}(μ-bb7){Ru*(phen)2}]Cl6 (only the two terminal metal centres are chiral, the two central metal centres are racemic) • Rubb7tetranuclear=Δ*Δ*-[{Ru*(phen)2}(μ-bb7) {Ru(phen)}(μ-bb7){Ru(phen)}(μ-bb7)-{Ru*(phen)2}]Cl8 (only the two terminal metal centres are chiral, the two central metal centres are racemic)
(§5) Further MIC assays and Minimum Bactericidal Concentration (MBC) assays were conducted against Gram-positive and Gram-negative bacterial strains using symmetric and non-symmetric, inert and labile complexes.

[3] = test system: MRSA (a wild clinical strain from the JCU culture collection); assay: MIC determination, broth micro-dilution (CAMHB); format: cell-based, methicillin-resistant S. aureus; conditions: Table 1; 37° C., 24 h
Experimental: as §4, §5

E. coli ATCC 25922 = assay: MIC determination, broth micro-dilution (CAMHB); format: cell-based, Escherichia coli; conditions: Table 1; 37° C., 24 h
Experimental: as §4, §5

P. aeruginosa ATCC 27853 = assay: MIC determination, broth micro-dilution (CAMHB); format: cell-based, Pseudomonas aeruginosa; conditions: Table 1; 37° C., 24 h
Experimental: as §4, §5

S. epidermidis = assay: Further MIC assays, whole spectrum bacteria (CAMHB); format: cell-based; conditions: Table 3; Broth: CAMHB
Experimental: (§6) Further MIC assays were conducted against five different bacteria with Rubbn (n=7, 10, 12, 16), two rigid dinuclear species (bridges bpm and dppm) and Gentamicin—Whole spectrum bacteria MIC test results (Broth: CAMHB).

S. typhimurium = assay: as above; format: cell-based; conditions: Table 3; Broth: CAMHB
Experimental: as §6

E. faecalis = assay: as above; format: cell-based; parameters: unit not given beside the values; conditions: Table 3; Broth: CAMHB
Experimental: as §6

VRE = assay: as above; format: cell-based, vancomycin-resistant Enterococcus; conditions: Table 3; Broth: CAMHB
Experimental: as §6

A. baumanii = assay: as above; format: cell-based; parameters: unit not given here; conditions: Table 3; Broth: CAMHB
Experimental: as §6

human red blood cells = assay: Haemolytic assay; format: cell-based; conditions: for First indication (>2%) of haemolysis: 24 h incubation with red blood cells
Experimental: Freshly-drawn human blood was collected using lithium heparin vacuum blood collection tubes (Vacutainer, BD Australia). Erythrocytes were separated by centrifugation for 10 min at 1000 g at 10° C. and washed six times with phosphate-buffered saline (PBS) solution and diluted with PBS to a 10% solution. The concentration of erythrocytes was determined by haemocrit centrifugation (Biofuge Haemo, Heraeus instruments). A 1% Triton-X solution was prepared as the positive control. The complexes to be tested were dissolved in PBS to a stock solution of 2048 mg ml^−1 and two-fold diluted in PBS in round-bottomed 96-well plates in a final volume of […] in each well. […] red blood cell suspension samples were added to the wells making a concentration range from […] to 512 μg ml^−1 for Rubbn (n=10, 12, 16) and 2 μg ml^−1 to 1024 μg ml^−1 for Rubb7, and the plates with each complex were respectively incubated for 1, 2, 4, 8 and 24 h at 37° C. After incubation, the plates were centrifuged at 1000 g for 4 min. […] of supernatant in each well was transferred to a corresponding well in a new 96-well microtitre plate. The absorbance of each well was measured at 540 nm using a plate reader (Mutiskan Ascent, Thermo). Each complex was analysed in duplicate. The solutions of the metal complex at the same tested concentrations without erythrocytes were measured as a negative control.
The extent of haemolysis induced by incubation of the ruthenium complexes for 24 h with freshly-collected human red blood cells is shown in FIG. 1 and summarised in Table 5 below: […]

THP-1 cells = assay: Cytotoxicity assay (cell count with haemacytometer); format: cell-based, human
Experimental: Consequently, the toxicity (IC50) against THP-1 cells (a human acute monocytic leukemia cell line and a good model for nucleated eukaryotic cells) was examined (J. […] Human monocytic THP-1 cells were obtained from the American Type Culture Collection (ATCC, Rockville, Md., USA). […] Cells were seeded at a density of 5×10^5 per well in a sterile flat bottom 96-well plate, and incubated with the desired drug concentration in duplicate, to a total volume of […]. The concentration range for all the complexes was between […]. The plates containing each complex were respectively incubated for 24 and 48 h at 37° C. with 5% CO2. After incubation, the concentration of cells in each well was counted with a haemacytometer and IC50 values were calculated and the results are summarise in Table 6 below: […]

[4] = all the tested concentrations, over 24 h

Compound	MIC S. aureus (S. aureus ATCC 25923)	MIC MRSA [3]	MIC E. coli (E. coli ATCC 25922)	MIC P. aeruginosa (P. aeruginosa ATCC 27853)	MIC S. epidermidis (S. epidermidis)	MIC S. typhimurium (S. typhimurium)	MIC E. faecalis (E. faecalis)	MIC VRE (VRE)	MIC A. baumanii (A. baumanii)	First indication (>2%) of haemolysis (human red blood cells)	haemolytic activity (human red blood cells; [4])	IC50 (THP-1 cells; 24 h)	IC50 THP-1 (THP-1 cells; 24 h)	IC50 (THP-1 cells; 48 h)	IC50 THP-1 (THP-1 cells; 48 h)	haemolytic activity (human red blood cells; at 10 μM, over 24 h)	also measured
CCN(CC)CCCC(C)Nc1ccnc2cc(Cl)ccc12 (centres unmarked) [chloroquine, reference compound]																	IC50 ([1]; read-out: IC50 D6): 0.0098 µM; IC90 ([1]; read-out: IC90 D6): 0.0125 µM; IC50 ([2]; read-out: IC50 W2): 0.176 µM; IC90 ([2]; read-out: IC90 W2): 0.383 µM
Cc1cc[n+]2c(c1)-c1cc(CCCCCCCc3cc[n+]4c(c3)-c3cc(C)cc[n+]3[Ru-4]435([n+]4cccc6ccc7ccc[n+]3c7c64)[n+]3cccc4ccc6ccc[n+]5c6c43)cc[n+]1[Ru-4]213([n+]2cccc4ccc5ccc[n+]1c5c42)[n+]1cccc2ccc4ccc[n+]3c4c21.F[P-](F)(F)(F)(F)F.F[P-](F)(F)(F)(F)F.F[P-](F)(F)(F)(F)F.F[P-](F)(F)(F)(F)F [ΔΔ-Rubb7, [{Ru(phen)2}2(μ-bb7)](PF6)4]	16 µg/mL	32 µg/mL	16 µg/mL	128 µg/mL	1	>128	32	16	64	64 µg/mL	no significant haemolytic activity	266 µM	400 µg/mL	173 µM	260 µg/mL		
Cc1ccnc(-c2cc(CCCCCCCCCCc3ccnc(-c4cc(C)ccn4)c3)ccn2)c1.F[P-](F)(F)(F)(F)F.F[P-](F)(F)(F)(F)F.F[P-](F)(F)(F)(F)F.F[P-](F)(F)(F)(F)F.[Ru+2].[Ru+2].c1cnc2c(c1)ccc1cccnc12.c1cnc2c(c1)ccc1cccnc12.c1cnc2c(c1)ccc1cccnc12.c1cnc2c(c1)ccc1cccnc12 [ΔΔ-Rubb10, [{Ru(phen)2}2(μ-bb10)](PF6)4]	4 µg/mL	4 µg/mL	4 µg/mL	64 µg/mL	0.5	32	8	4	64	32 µg/mL	no significant haemolytic activity	194 µM	300 µg/mL	103 µM	160 µg/mL		
ΔΔ-[{Ru(phen)2}2(μ-bb12)](PF6)4 [ΔΔ-Rubb12]	1 µg/mL	1 µg/mL	2 µg/mL	16 µg/mL	0.5	8	4	2	8	16 µg/mL		86 µM	135 µg/mL	57 µM	90 µg/mL	essentially exhibited no haemolysis	
ΔΔ-[{Ru(phen)2}2(μ-bb16)](PF6)4 [ΔΔ-Rubb16]	1 µg/mL	1 µg/mL	4 µg/mL	8 µg/mL	1	8	2	2	8	4 µg/mL		48 µM	78 µg/mL	25 µM	40 µg/mL	noticeably increased	haemolytic activity (human red blood cells; at 10 μM, for 8 h): low
